# Test results: patent US9409905B2, “Antibacterial compounds and methods for use” (PTC THERAPEUTICS, INC., priority 2011, dated 2016)
# How the values were obtained:
# [1] = system: Escherichia coli (E. coli) BAS849; assay: Antibacterial activity, microbroth dilution MIC (Table 1); type: cell-based; details: microbroth dilution, super sensitive Gram-negative E. coli BAS849, read-out: MIC, BAS849
# How it was run: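 Read-out: visual absence of growth. The lowest concentration meeting this gives the MIC, expressed in μg/mL, with microbroth dilution as the method.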
# [2] = system: Staphylococcus aureus (S. aureus) 29213; assay: as above; type: cell-based; details: microbroth dilution, Gram-positive S. aureus 29213, read-out: MIC, 29213
# How it was run: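 Microbroth dilution was used. MIC, in μg/mL, is the lowest drug concentration preventing macroscopically visible growth under the test conditions.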
# E. coli 25922 = assay: as above; type: cell-based, Escherichia coli; details: Escherichia coli; microbroth dilution; control Gram-negative E. coli 25922 strain; read-out: MIC, 25922
# How it was run: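 Potency is reported as minimum inhibitory concentration in μg/mL, determined by broth microdilution as the lowest level of compound that stops growth visible to the eye.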
# E. coli LZ3111 = assay: Antibacterial activity, MIC, quinolone resistant strain (Table 2); type: cell-based; details: Escherichia coli, LZ3111, read-out: MIC LZ3111
# How it was run: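 Broth microdilution. Read-out: MIC in μg/mL, taken as lowest concentration with no macroscopically visible growth.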
smiles,measurement,setting,value
"CCc1cc(C(=O)O)c(=O)[nH]c1-c1ccc2c(c1)cc(CN1CCc3ccccc3C1)n2C [Cpd 134, 6-(2-((3,4-dihydroisoquinolin-2(1H)-yl)methyl)-1-methyl-1H-indol-5-yl)-5-ethyl-2-oxo-1,2-dihydropyridine-3-carboxylic acid]",MIC,[1],< 1 µg/mL
same,MIC,[2],3.5 to 12.5 µg/mL
same,MIC,E. coli 25922,1 to 3.5 µg/mL
same,MIC,E. coli LZ3111,12.5 to 150 µg/mL
"CCc1cc(C(=O)O)c(=O)[nH]c1-c1ccc2c(c1)cc(CN1Cc3cccnc3C1)n2C [Cpd 135, 6-(2-((5H-pyrrolo[3,4-b]pyridin-6(7H)-yl)methyl)-1-methyl-1H-indol-5-yl)-5-ethyl-2-oxo-1,2-dihydropyridine-3-carboxylic acid]",MIC,[1],< 1 µg/mL
same,MIC,[2],12.5 to 150 µg/mL
same,MIC,E. coli 25922,3.5 to 12.5 µg/mL
same,MIC,E. coli LZ3111,12.5 to 150 µg/mL
"CCc1cc(C(=O)O)c(=O)[nH]c1-c1ccc2c(c1)cc(CN1CC3CCCNC3C1)n2C (stereo not drawn) [Cpd 136, 5-ethyl-6-(1-methyl-2-((tetrahydro-1H-pyrrolo[3,4-b]pyridin-6(2H,7H,7aH)-yl)methyl)-1H-indol-5-yl)-2-oxo-1,2-dihydropyridine-3-carboxylic acid]",MIC,[1],1 to 3.5 µg/mL
same,MIC,[2],12.5 to 150 µg/mL
same,MIC,E. coli 25922,3.5 to 12.5 µg/mL
same,MIC,E. coli LZ3111,12.5 to 150 µg/mL
"CCc1cc(C(=O)O)c(=O)[nH]c1-c1ccc2c(c1)cc(CN1C[C@@H](C)O[C@@H](C)C1)n2C [Cpd 138, 6-(2-((cis-2,6-dimethylmorpholino)methyl)-1-methyl-1H-indol-5-yl)-5-ethyl-2-oxo-1,2-dihydropyridine-3-carboxylic acid]",MIC,[1],< 1 µg/mL
same,MIC,[2],12.5 to 150 µg/mL
same,MIC,E. coli 25922,3.5 to 12.5 µg/mL
same,MIC,E. coli LZ3111,12.5 to 150 µg/mL
"CCc1cc(C(=O)O)c(=O)[nH]c1-c1ccc2c(c1)cc(CN1CCNCC1)n2C [Cpd 139, 5-ethyl-6-(1-methyl-2-(piperazin-1-ylmethyl)-1H-indol-5-yl)-2-oxo-1,2-dihydropyridine-3-carboxylic acid]",MIC,[1],1 to 3.5 µg/mL
same,MIC,[2],12.5 to 150 µg/mL
same,MIC,E. coli 25922,12.5 to 150 µg/mL
same,MIC,E. coli LZ3111,12.5 to 150 µg/mL
"CCc1cc(C(=O)O)c(=O)[nH]c1-c1ccc2c(c1)cc(CN1CCN(C(C)C)CC1)n2C [Cpd 141, 5-ethyl-6-(2-((4-isopropylpiperazin-1-yl)methyl)-1-methyl-1H-indol-5-yl)-2-oxo-1,2-dihydropyridine-3-carboxylic acid]",MIC,[1],< 1 µg/mL
same,MIC,[2],12.5 to 150 µg/mL
same,MIC,E. coli 25922,1 to 3.5 µg/mL
same,MIC,E. coli LZ3111,12.5 to 150 µg/mL
"CCc1cc(C(=O)O)c(=O)[nH]c1-c1ccc2c(c1)cc(CN1CC3CC1CN3)n2C (stereo not drawn) [Cpd 142, 6-(2-(2,5-diazabicyclo[2.2.1]heptan-2-ylmethyl)-1-methyl-1H-indol-5-yl)-5-ethyl-2-oxo-1,2-dihydropyridine-3-carboxylic acid]",MIC,[1],3.5 to 12.5 µg/mL
same,MIC,[2],12.5 to 150 µg/mL
same,MIC,E. coli 25922,12.5 to 150 µg/mL
same,MIC,E. coli LZ3111,12.5 to 150 µg/mL
"CCc1cc(C(=O)O)c(=O)[nH]c1-c1ccc2c(c1)cc(CN1C[C@@H]3[C@H](C1)[C@H]3N(Cc1ccccc1)Cc1ccccc1)n2C [Cpd 143, 6-(2-(((1R,5S,6s)-6-(dibenzylamino)-3-azabicyclo[3.1.0]hexan-3-yl)methyl)-1-methyl-1H-indol-5-yl)-5-ethyl-2-oxo-1,2-dihydropyridine-3-carboxylic acid]",MIC,[1],< 1 µg/mL
same,MIC,[2],3.5 to 12.5 µg/mL
same,MIC,E. coli 25922,12.5 to 150 µg/mL
same,MIC,E. coli LZ3111,12.5 to 150 µg/mL
"CCc1cc(C(=O)O)c(=O)[nH]c1-c1ccc2c(c1)cc(CN1CCN(C(C)=O)CC1)n2C [Cpd 144, 6-(2-((4-acetylpiperazin-1-yl)methyl)-1-methyl-1H-indol-5-yl)-5-ethyl-2-oxo-1,2-dihydropyridine-3-carboxylic acid]",MIC,[1],< 1 µg/mL
same,MIC,[2],12.5 to 150 µg/mL
same,MIC,E. coli 25922,3.5 to 12.5 µg/mL
same,MIC,E. coli LZ3111,12.5 to 150 µg/mL
"CCc1cc(C(=O)O)c(=O)[nH]c1-c1ccc2c(c1)cc(CN(C)C(C)=O)n2C [Cpd 145, 5-ethyl-6-(1-methyl-2-((N-methylacetamido)methyl)-1H-indol-5-yl)-2-oxo-1,2-dihydropyridine-3-carboxylic acid]",MIC,[1],< 1 µg/mL
same,MIC,[2],12.5 to 150 µg/mL
same,MIC,E. coli 25922,3.5 to 12.5 µg/mL
same,MIC,E. coli LZ3111,12.5 to 150 µg/mL
"CCc1cc(C(=O)O)c(=O)[nH]c1-c1ccc2c(c1)cc(CN1C[C@H]3CCC[C@@H](N(C)Cc4ccccc4)[C@H]3C1)n2C [Cpd 146, 6-(2-(((3aR,4R,7aS)-4-(benzyl(methyl)amino)-1H-isoindol-2(3H,3aH,4H,5H,6H,7H,7aH)-yl)methyl)-1-methyl-1H-indol-5-yl)-5-ethyl-2-oxo-1,2-dihydropyridine-3-carboxylic acid]",MIC,[1],< 1 µg/mL
same,MIC,[2],12.5 to 150 µg/mL
same,MIC,E. coli 25922,1 to 3.5 µg/mL
same,MIC,E. coli LZ3111,12.5 to 150 µg/mL
"CCc1cc(C(=O)O)c(=O)[nH]c1-c1ccc2c(c1)cc(CN1C[C@H]3CC[C@@H](N(C)C)[C@H]3C1)n2C [Cpd 147, 6-(2-(((3aR,4R,6aS)-4-(dimethylamino)hexahydrocyclopenta[c]pyrrol-2(1H)-yl)methyl)-1-methyl-1H-indol-5-yl)-5-ethyl-2-oxo-1,2-dihydropyridine-3-carboxylic acid]",MIC,[1],< 1 µg/mL
same,MIC,[2],12.5 to 150 µg/mL
same,MIC,E. coli 25922,< 1 µg/mL
same,MIC,E. coli LZ3111,12.5 to 150 µg/mL
"CCc1cc(C(=O)O)c(=O)[nH]c1-c1ccc2c(c1)cc(CN1C[C@H]3CCC[C@@H](NC)[C@H]3C1)n2C [Cpd 148, 5-ethyl-6-(1-methyl-2-(((3aR,4R,7aS)-4-(methylamino)-1H-isoindol-2(3H,3aH,4H,5H,6H,7H,7aH)-yl)methyl)-1H-indol-5-yl)-2-oxo-1,2-dihydropyridine-3-carboxylic acid]",MIC,[1],1 to 3.5 µg/mL
same,MIC,[2],12.5 to 150 µg/mL
same,MIC,E. coli 25922,3.5 to 12.5 µg/mL
same,MIC,E. coli LZ3111,12.5 to 150 µg/mL
"CCc1cc(C(=O)O)c(=O)[nH]c1-c1ccc2c(c1)cc(CN1C[C@H]3CCC[C@@H](N(C)C)[C@H]3C1)n2C [Cpd 149, 6-(2-(((3aR,4R,7aS)-4-(dimethylamino)-1H-isoindol-2(3H,3aH,4H,5H,6H,7H,7aH)-yl)methyl)-1-methyl-1H-indol-5-yl)-5-ethyl-2-oxo-1,2-dihydropyridine-3-carboxylic acid]",MIC,[1],< 1 µg/mL
same,MIC,[2],12.5 to 150 µg/mL
same,MIC,E. coli 25922,1 to 3.5 µg/mL
same,MIC,E. coli LZ3111,12.5 to 150 µg/mL
"CCc1cc(C(=O)O)c(=O)[nH]c1-c1ccc2c(c1)cc(CN)n2C [Cpd 150, 6-(2-(aminomethyl)-1-methyl-1H-indol-5-yl)-5-ethyl-2-oxo-1,2-dihydropyridine-3-carboxylic acid]",MIC,[1],< 1 µg/mL
same,MIC,[2],12.5 to 150 µg/mL
same,MIC,E. coli 25922,1 to 3.5 µg/mL
same,MIC,E. coli LZ3111,12.5 to 150 µg/mL
"CCc1cc(C(=O)O)c(=O)[nH]c1-c1ccc2c(c1)cc1n2CCC1N1CCCC1 (stereo not drawn) [Cpd 151, 5-ethyl-2-oxo-6-(1-(pyrrolidin-1-yl)-2,3-dihydro-1H-pyrrolo[1,2-a]indol-7-yl)-1,2-dihydropyridine-3-carboxylic acid]",MIC,[1],< 1 µg/mL
same,MIC,[2],12.5 to 150 µg/mL
same,MIC,E. coli 25922,1 to 3.5 µg/mL
same,MIC,E. coli LZ3111,12.5 to 150 µg/mL
"CCc1cc(C(=O)O)c(=O)[nH]c1-c1ccc2c(c1)cc1n2CCC1N1CCC(N(C)C)C1 (stereo not drawn) [Cpd 153, 6-(1-(3-(dimethylamino)pyrrolidin-1-yl)-2,3-dihydro-1H-pyrrolo[1,2-a]indol-7-yl)-5-ethyl-2-oxo-1,2-dihydropyridine-3-carboxylic acid]",MIC,[1],< 1 µg/mL
same,MIC,[2],12.5 to 150 µg/mL
same,MIC,E. coli 25922,3.5 to 12.5 µg/mL
same,MIC,E. coli LZ3111,12.5 to 150 µg/mL
"CCc1cc(C(=O)O)c(=O)[nH]c1-c1ccc2c(c1)cc(C1CCNC1)n2C.Cl (stereo not drawn) [Cpd 156, 5-ethyl-6-(1-methyl-2-(pyrrolidin-3-yl)-1H-indol-5-yl)-2-oxo-1,2-dihydropyridine-3-carboxylic acid hydrochloride]",MIC,[1],3.5 to 12.5 µg/mL
same,MIC,[2],12.5 to 150 µg/mL
same,MIC,E. coli 25922,12.5 to 150 µg/mL
same,MIC,E. coli LZ3111,12.5 to 150 µg/mL
"CCc1cc(C(=O)O)c(=O)[nH]c1-c1ccc2c(c1)cc(C(C)N1CCCC1)n2C (stereo not drawn) [Cpd 157, 5-ethyl-6-(1-methyl-2-(1-(pyrrolidin-1-yl)ethyl)-1H-indol-5-yl)-2-oxo-1,2-dihydropyridine-3-carboxylic acid]",MIC,[1],< 1 µg/mL
same,MIC,[2],12.5 to 150 µg/mL
same,MIC,E. coli 25922,3.5 to 12.5 µg/mL
same,MIC,E. coli LZ3111,12.5 to 150 µg/mL
"CCc1cc(C(=O)O)c(=O)[nH]c1-c1ccc2c(cc(CN3CCCC3)n2C)c1F [Cpd 158, 5-ethyl-6-(4-fluoro-1-methyl-2-(pyrrolidin-1-ylmethyl)-1H-indol-5-yl)-2-oxo-1,2-dihydropyridine-3-carboxylic acid]",MIC,[1],< 1 µg/mL
same,MIC,[2],12.5 to 150 µg/mL
same,MIC,E. coli 25922,1 to 3.5 µg/mL
same,MIC,E. coli LZ3111,12.5 to 150 µg/mL
"CCc1cc(C(=O)O)c(=O)[nH]c1-c1ccc2c(c1)cc(CCN)n2C.Cl [Cpd 163, 6-(2-(2-aminoethyl)-1-methyl-1H-indol-5-yl)-5-ethyl-2-oxo-1,2-dihydropyridine-3-carboxylic acid hydrochloride]",MIC,[1],< 1 µg/mL
same,MIC,[2],12.5 to 150 µg/mL
same,MIC,E. coli 25922,12.5 to 150 µg/mL
same,MIC,E. coli LZ3111,12.5 to 150 µg/mL
"CCc1c(-c2ccc3c(c2)cc(CN2C[C@@H](C)N(C)[C@@H](C)C2)n3C)[nH]c(=O)c(C(=O)O)c1O [Cpd 170, 5-ethyl-4-hydroxy-6-(1-methyl-2-(((3S,5R)-3,4,5-trimethylpiperazin-1-yl)methyl)-1H-indol-5-yl)-2-oxo-1,2-dihydropyridine-3-carboxylic acid]",MIC,[1],< 1 µg/mL
same,MIC,[2],12.5 to 150 µg/mL
same,MIC,E. coli 25922,3.5 to 12.5 µg/mL
same,MIC,E. coli LZ3111,12.5 to 150 µg/mL
"CCc1c(-c2ccc3c(c2)cc(CN2C[C@@H](C)O[C@@H](C)C2)n3C)[nH]c(=O)c(C(=O)O)c1O [Cpd 172, 6-(2-(((2S,6R)-2,6-dimethylmorpholino)methyl)-1-methyl-1H-indol-5-yl)-5-ethyl-4-hydroxy-2-oxo-1,2-dihydropyridine-3-carboxylic acid]",MIC,[1],< 1 µg/mL
same,MIC,[2],3.5 to 12.5 µg/mL
same,MIC,E. coli 25922,12.5 to 150 µg/mL
same,MIC,E. coli LZ3111,12.5 to 150 µg/mL
"CCc1c(-c2ccc3c(c2)cc(CN2CCN(C(C)C)CC2)n3C)[nH]c(=O)c(C(=O)O)c1O [Cpd 174, 5-ethyl-4-hydroxy-6-(2-((4-isopropylpiperazin-1-yl)methyl)-1-methyl-1H-indol-5-yl)-2-oxo-1,2-dihydropyridine-3-carboxylic acid]",MIC,[1],< 1 µg/mL
same,MIC,[2],3.5 to 12.5 µg/mL
same,MIC,E. coli 25922,1 to 3.5 µg/mL
same,MIC,E. coli LZ3111,12.5 to 150 µg/mL
